Reference: patent US12378224B2 (Dong-A Socio Holdings Co., Ltd., priority 2016, dated 2025)

molecular target: human MER (528-end) (Homo sapiens (Human), UniProt Q12866); test: HTRF Kinase Activity Biochemical Assay (KinEASE-TK); settings: 10 uM ATP
How it was run: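 Recombinant human MER (528-end) phosphorylated biotin-TK peptide substrate, 1 h at room temperature. Reaction stopped with detection buffer containing 0.375 nM Eu3+-cryptate anti-TK antibody and 0.062 uM streptavidin-XL665, 1 h further. Activity taken as HTRF ratio 665/620 nm ×10,000, 340 nm excitation.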

Sequence of human MER (528-end) (Q12866 528-999 limits assumed): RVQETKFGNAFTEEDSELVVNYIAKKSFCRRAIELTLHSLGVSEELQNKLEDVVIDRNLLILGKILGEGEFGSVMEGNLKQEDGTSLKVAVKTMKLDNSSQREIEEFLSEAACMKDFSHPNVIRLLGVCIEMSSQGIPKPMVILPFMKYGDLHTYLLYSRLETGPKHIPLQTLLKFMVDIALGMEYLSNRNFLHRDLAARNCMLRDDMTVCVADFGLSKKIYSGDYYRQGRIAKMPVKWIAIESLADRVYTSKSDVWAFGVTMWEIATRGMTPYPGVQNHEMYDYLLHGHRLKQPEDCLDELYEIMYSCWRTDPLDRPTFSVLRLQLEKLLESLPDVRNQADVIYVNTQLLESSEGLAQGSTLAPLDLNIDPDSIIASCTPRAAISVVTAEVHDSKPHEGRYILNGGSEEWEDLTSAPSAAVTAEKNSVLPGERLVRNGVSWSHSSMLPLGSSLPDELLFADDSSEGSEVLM

Row | IC50 | Compound
1 | > 1000 nM | Cn1cc(-c2cnc(N)c(C(=O)N[C@@H]3CCN(C(=O)Nc4ccccc4Cl)C3)c2)cn1 [Example 21, (R)-2-amino-N-(1-((2-chlorophenyl)carbamoyl)pyrrolidin-3-yl)-5-(1-methyl-1H-pyrazol-4-yl)nicotinamide]
2 | > 1000 nM | CC(=O)Nc1cccc(OC(=O)N2CC[C@@H](NC(=O)c3cc(-c4cnn(C)c4)cnc3N)C2)c1 [Example 76, 3-acetamidophenyl (R)-3-(2-amino-5-(1-methyl-1H-pyrazol-4-yl)nicotinamido)pyrrolidine-1-carboxylate]
3 | 10 to 100 nM | CN1CCN(c2ccc(-c3cnc(N)c(C(=O)N[C@@H]4CCN(C(=O)c5ccc(-c6ccccc6)cc5)C4)c3)cc2)CC1 [Example 556, (R)—N-(1-([1,1′-biphenyl]-4-carbonyl)pyrrolidin-3-yl)-2-amino-5-(4-(4-methylpiperazin-1-yl)phenyl)nicotinamide]
4 | 100 to 1000 nM | Cn1cc(-c2cnc(N)c(C(=O)N[C@@H]3CCN(C(=O)c4ccc(OCc5ccccc5)cc4)C3)c2)cn1 [Example 410, (R)-2-amino-N-(1-(4-(benzyloxy)benzoyl)pyrrolidin-3-yl)-5-(1-methyl-1H-pyrazol-4-yl)nicotinamide]
5 | > 1000 nM | Cc1onc(N)c1-c1ccc(C(=O)N2CC[C@@H](NC(=O)c3cc(-c4cnn(C)c4)cnc3N)C2)cc1 [Example 540, (R)-2-amino-N-(1-(4-(3-amino-5-methylisoxazol-4-yl)benzoyl)pyrrolidin-3-yl)-5-(1-methyl-1H-pyrazol-4-yl)nicotinamide]
6 | 100 to 1000 nM | Cn1cc(-c2cnc(N)c(C(=O)N[C@@H]3CCN(C(=O)c4ccc(-c5ccc(C(C)(C)N6CCN(CCO)CC6)cc5)cc4)C3)c2)cn1 [Example 387, (R)-2-amino-N-(1-(4′-(2-(4-(2-hydroxyethyl)piperazin-1-yl)propan-2-yl)-[1,1′-biphenyl]-4-carbonyl)pyrrolidin-3-yl)-5-(1-methyl-1H-pyrazol-4-yl)nicotinamide]

molecular target: human c-MER catalytic domain (Homo sapiens (Human), UniProt Q12866); test: TR-FRET Kinase Activity Biochemical Assay (LanthaScreen); settings: 10 uM ATP, 1 hour, kinase not given
Source text: For the SAR (structure-activity relationship) and compound screening, LanthaScreen™ TR-FRET (Time-Resolved fluorescence energy transfer) assay was employed using the phospho-tyrosine specific Terbium (Tb)-labelded antibody with a fluorescein labeled poly-GT (glutamate-tyrosine) as a substrate. Upon excitation at 340 nm by UV, the energy from Tb donor of the antibody is transferred to the fluorescein of the phosphorylated poly GT substrate, and fluorescein emits light at 520 nm. The ratio between the intensity of […] was used to quantify the level of kinase activity. The recombinant proteins of human c-MER and AXL catalytic domains, Fluorescein-labeled poly-GT substrate, Tb-labeled anti-phosphorylated tyrosine antibodies, the kinase assay buffer, and 0.5M EDTA solution were purchased (Life technologies, USA). The TR-FRET assays were carried out in the white low volume 384-well plate (Corning, USA). […] 10 mM EDTA was added to terminate the enzyme reaction, and the level of phosphorylation of poly-GT substrate was determined following 30 min incubation with 2 nM Tb-labeled antibody. The fluorescence intensity was measured with Envision™ plate reader (PerkinElmer, USA).

Sequence of human c-MER catalytic domain (Q12866 587-858): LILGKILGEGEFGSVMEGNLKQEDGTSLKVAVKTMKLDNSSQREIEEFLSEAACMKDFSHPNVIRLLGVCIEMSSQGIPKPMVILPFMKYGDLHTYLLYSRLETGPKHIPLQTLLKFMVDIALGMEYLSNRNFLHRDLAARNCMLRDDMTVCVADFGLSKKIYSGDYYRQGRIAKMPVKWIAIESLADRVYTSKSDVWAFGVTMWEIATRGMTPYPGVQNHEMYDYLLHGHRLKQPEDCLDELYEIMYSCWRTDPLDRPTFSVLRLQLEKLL

Row | Compound | IC50
7 | CC(=O)N1CCC(n2cc(-c3cnc(N)c(C(=O)N[C@@H]4CCN(Cc5ccccc5)C4)c3)cn2)CC1 [Example 240, (R)-5-(1-(1-acetylpiperidin-4-yl)-1H-pyrazol-4-yl)-2-amino-N-(1-benzylpyrrolidin-3-yl)nicotinamide] | 100 to 1000 nM
8 | Cn1cc(-c2cnc(N)c(C(=O)NC3CN(C(=O)c4ccc(-c5ccccc5)cc4)C3)c2)cn1 [Example 344, N-(1-([1,1′-biphenyl]-4-carbonyl)azetidin-3-yl)-2-amino-5-(1-methyl-1H-pyrazol-4-yl)nicotinamide] | > 1000 nM
9 | Cn1cc(-c2cnc(N)c(C(=O)N[C@@H]3CCN(C(=O)Oc4cccc(-c5cnn(C6CCNCC6)c5)c4)C3)c2)cn1 [Example 285, 3-(1-(piperidin-4-yl)-1H-pyrazol-4-yl)phenyl (R)-3-(2-amino-5-(1-methyl-1H-pyrazol-4-yl)nicotinamido)pyrrolidine-1-carboxylate] | 100 to 1000 nM
10 | Cn1cc(-c2cnc(N)c(C(=O)N[C@@H]3CCN(C(=O)c4ccc(-c5ccc(S(=O)(=O)N6CCC6)cc5)cc4)C3)c2)cn1 [Example 660, (R)-2-amino-N-(1-(4′-(azetidin-1-ylsulfonyl)-[1,1′-biphenyl]-4-carbonyl)pyrrolidin-3-yl)-5-(1-methyl-1H-pyrazol-4-yl)nicotinamide] | 100 to 1000 nM
11 | Cn1cc(-c2cnc(N)c(C(=O)N[C@@H]3CCN(C(=O)Oc4cccc(-c5cccc(CN6CCC[C@@H](N)C6)c5)c4)C3)c2)cn1 [Example 338, 3′-(((R)-3-aminopiperidin-1-yl)methyl)-[1,1′-biphenyl]-3-yl (R)-3-(2-amino-5-(1-methyl-1H-pyrazol-4-yl)nicotinamido)pyrrolidine-1-carboxylate] | 10 to 100 nM
12 | Cn1cc(-c2cnc(N)c(C(=O)N[C@@H]3CCN(C(=O)OC4CCC(c5ccccc5)C4)C3)c2)cn1 (stereo partly drawn) [Example 121, 3-phenylcyclopentyl (3R)-3-(2-amino-5-(1-methyl-1H-pyrazol-4-yl)nicotinamido)pyrrolidine-1-carboxylate] | 100 to 1000 nM
13 | Cn1cc(-c2cnc(N)c(C(=O)N[C@@H]3CCN(C(=O)c4cccc(-c5ccoc5)c4)C3)c2)cn1 [Example 468, (R)-2-amino-N-(1-(3-(furan-3-yl)benzoyl)pyrrolidin-3-yl)-5-(1-methyl-1H-pyrazol-4-yl)nicotinamide] | > 1000 nM
14 | CN1CCN(Cc2ccc(-c3cnc(N)c(C(=O)N[C@@H]4CCN(C(=O)Oc5ccccc5)C4)c3)cc2)CC1 [Example 118, phenyl (R)-3-(2-amino-5-(4-((4-methylpiperazin-1-yl)methyl)phenyl)nicotinamido)pyrrolidine-1-carboxylate] | 100 to 1000 nM
15 | Cn1cc(-c2cnc(N)c(C(=O)N[C@@H]3CCN(C(=O)Cc4cccc(-c5ccccc5)c4)C3)c2)cn1 [Example 423, (R)—N-(1-(2-([1,1′-biphenyl]-3-yl)acetyl)pyrrolidin-3-yl)-2-amino-5-(1-methyl-1H-pyrazol-4-yl)nicotinamide] | > 1000 nM
16 | Cn1cc(-c2cnc(N)c(C(=O)N[C@@H]3CCN(C(=O)Oc4cccc(-c5ccc(CCC(=O)O)cc5)c4)C3)c2)cn1 [Example 276, (R)-3-(3′-((3-(2-amino-5-(1-methyl-1H-pyrazol-4-yl)nicotinamido)pyrrolidine-1-carbonyl)oxy)-[1,1′-biphenyl]-4-yl) propanoic acid] | 100 to 1000 nM
17 | Cn1cc(-c2cnc(N)c(C(=O)N[C@@H]3CCN(C(=O)c4ccc(-c5ccccc5C=O)cc4)C3)c2)cn1 [Example 355, (R)-2-amino-N-(1-(2′-formyl-[1,1′-biphenyl]-4-carbonyl)pyrrolidin-3-yl)-5-(1-methyl-1H-pyrazol-4-yl)nicotinamide] | 10 to 100 nM
18 | Cn1cc(-c2cnc(N)c(C(=O)N[C@@H]3CCN(C(=O)c4cccc(-c5cnn(S(=O)(=O)c6ccccc6)c5)c4)C3)c2)cn1 [Example 717, (R)-2-amino-5-(1-methyl-1H-pyrazol-4-yl)-N-(1-(3-(1-(phenylsulfonyl)-1H-pyrazol-4-yl)benzoyl)pyrrolidin-3-yl)nicotinamide] | > 1000 nM
19 | Cn1cc(-c2cnc(N)c(C(=O)N[C@@H]3CCN(C(=O)Oc4cccc(-c5cccc(CN6CC[C@@H](N)C6)c5)c4)C3)c2)cn1 [Example 336, 3′-(((R)-3-aminopyrrolidin-1-yl)methyl)-[1,1′-biphenyl]-3-yl (R)-3-(2-amino-5-(1-methyl-1H-pyrazol-4-yl)nicotinamido)pyrrolidine-1-carboxylate] | 100 to 1000 nM
20 | Cn1cc(-c2cnc(N)c(C(=O)N[C@@H]3CCN(C(=O)c4ccc(-c5ccc(C#N)s5)cc4)C3)c2)cn1 [Example 537, (R)-2-amino-N-(1-(4-(5-cyanothiophen-2-yl)benzoyl)pyrrolidin-3-yl)-5-(1-methyl-1H-pyrazol-4-yl)nicotinamide] | 10 to 100 nM
21 | Cn1cc(-c2cnc(N)c(C(=O)N[C@@H]3CCN(C(=O)c4cccc5c4oc4ccccc45)C3)c2)cn1 [Example 501, (R)-2-amino-N-(1-(dibenzo[b,d]furan-4-carbonyl)pyrrolidin-3-yl)-5-(1-methyl-1H-pyrazol-4-yl)nicotinamide] | > 1000 nM
22 | Cn1cc(-c2cnc(N)c(C(=O)N[C@@H]3CCN(C(=O)Nc4cccnc4)C3)c2)cn1 [Example 13, (R)-2-amino-5-(1-methyl-1H-pyrazol-4-yl)-N-(1-(pyridin-3-ylcarbamoyl)pyrrolidin-3-yl)nicotinamide] | > 1000 nM
23 | CC(c1cccc(Cl)c1)N1CC[C@@H](NC(=O)c2cc(-c3cnn(C4CCNCC4)c3)cnc2N)C1 (stereo partly drawn) [Example 149, 2-amino-N-((3R)-1-(1-(3-chlorophenyl)ethyl)pyrrolidin-3-yl)-5-(1-(piperidin-4-yl)-1H-pyrazol-4-yl)nicotinamide] | 100 to 1000 nM
24 | Cn1cc(-c2cnc(N)c(C(=O)N[C@@H]3CCCN(C(=O)c4ccc(-c5ccccc5)cc4)C3)c2)cn1 [Example 347, (R)—N-(1-([1,1′-biphenyl]-4-carbonyl)piperidin-3-yl)-2-amino-5-(1-methyl-1H-pyrazol-4-yl)nicotinamide] | > 1000 nM
25 | CN(C)CCCOc1ccc(-c2ccc(C(=O)N3CC[C@@H](NC(=O)c4cc(-c5cnn(C)c5)cnc4N)C3)cc2)cc1 [Example 551, (R)-2-amino-N-(1-(4′-(3-(dimethylamino)propoxy)-[1,1′-biphenyl]-4-carbonyl)pyrrolidin-3-yl)-5-(1-methyl-1H-pyrazol-4-yl)nicotinamide] | 10 to 100 nM
26 | CN(C)c1ccc(-c2ccc(C(=O)N3CC[C@@H](NC(=O)c4cc(-c5cnn(C)c5)cnc4N)C3)cc2)cc1 [Example 379, (R)-2-amino-N-(1-(4′-(dimethylamino)-[1,1′-biphenyl]-4-carbonyl)pyrrolidin-3-yl)-5-(1-methyl-1H-pyrazol-4-yl)nicotinamide] | 10 to 100 nM
27 | Cn1cc(-c2cnc(N)c(C(=O)N[C@@H]3CCN(C(=O)Oc4cc(Cl)cc(-c5ccc(CO)cc5)c4)C3)c2)cn1 [Example 291, 5-chloro-4′-(hydroxymethyl)-[1,1′-biphenyl]-3-yl (R)-3-(2-amino-5-(1-methyl-1H-pyrazol-4-yl)nicotinamido)pyrrolidine-1-carboxylate] | 10 to 100 nM
28 | (R,E)-2-amino-5-(1-methyl-1H-pyrazol-4-yl)-N-(1-(4-(3-oxobut-1-en-1-yl)benzoyl)pyrrolidin-3-yl)nicotinamide [Example 681] | > 1000 nM
